Reference: publication PMC2691177 (Biochemical Journal, 2009)

Target: human lysosomal HexA/HexB
Assay type: biochemical
Conditions: read-out: Hex A/B, Ki

## CC(=O)N[C@H]1/C(=N/OC(=O)Nc2ccccc2)O[C@H](CO)[C@@H](O)[C@@H]1O [PUGNAc, O-(2-acetamido-2-deoxy-D-glucopyranosylidene)amino N-phenylcarbamate]
  Ki: 25 ± 2.5 nM
